Laboratory results taken from patent US20210380948A1, “METHOD TO ALTER CHINESE HAMSTER OVARY CELL LINE STABILITY” (University of Delaware, priority 2018, published 2021).

Key:
CHO-K1 cells [1] = experiment: γH2AX foci count after bleomycin DSB induction, CHO-K1; type: cell-based, Chinese hamster; settings: for Induced DSB number: one-hour treatment
Experimental: (§1) CHO-K1, bEnd.3 or transfected CHO-K1 cells were seeded in chambers of an 8-well chambered cover glass (Cellvis, Mountain View, Calif.) at 2×10^5 cells/mL with 0.5 mL culture media. After 24-hour incubation, cells were treated with 10 μg/mL bleomycin (Sigma-Aldrich, St. Louis, Mo.) for 1 or 12 hours or with 50 μg/mL for 1 hour, followed by immediate media change with fresh warm culture media. After indicated hours of incubation in fresh media, the treated cells were washed three times with Tris buffered saline (TBS), fixed with 4% paraformaldehyde in TBS for 15 min, washed three times with TBS, permeabilized with 0.1% Triton-X100 (Sigma-Aldrich, St. Louis, Mo.) in TBS for 5 min, and washed three times with TBS. Cells were then blocked in TBS containing 3% goat serum (Sigma-Aldrich, St. Louis, Mo.) for 1 hour, incubated with 1:500 primary antibody (anti-phosphorylated γH2AX antibody, EMD Millipore, Billerica, Mass.) at 4° C. overnight, washed three times with TBS, and incubated with 1:1000 Alexa Fluor 488-conjugated secondary antibody (anti-mouse IgG antibody, Life Technologies, Carlsbad, Calif.) for 1 hour at room temperature. After three TBS washes, nuclei were stained with 4′,6-diamidino-2-phenylindole (DAPI, Invitrogen, Carlsbad, Calif.) for 15 min and again washed three times with TBS. Images were taken using a LSM 710 confocal microscope (Carl Zeiss, Thornwood, N.Y.) with a 63× objective. At least 50 cells and foci were counted per cell sample in duplicate cultures using software ImageJ.

[2] = system: bEnd.3 mouse endothelial cells; experiment: γH2AX foci count after bleomycin DSB induction, bEnd.3; type: cell-based; settings: for Induced DSB number: one-hour treatment
Experimental: as §1

[3] = system: BHK-21 hamster fibroblast; experiment: γH2AX foci count after bleomycin DSB induction, BHK-21; type: cell-based; settings: for Induced DSB number: one-hour treatment
Experimental: [The source words this procedure for another cell line and reports this cell line under the same test.] as §1

CHO-K1 cells [4] = experiment: γH2AX foci count in CHO-K1 cells transiently expressing DSB repair genes after bleomycin treatment; type: cell-based, Chinese hamster; settings: CH-version gene transiently expressed; 12-hour 10 μg/mL bleomycin; FIG. 3
Excerpt: To clone eight DSB repair genes, total mRNA from CHO-K1 cells or Chinese hamster liver tissue was extracted using Qiagen RNeasy Mini kit and reverse-transcribed into cDNA to be used as templates to generate gene fragments by PCR. FBXO18 gene and partial sequences of RNF8 and LIG4 genes were synthesized as gBlocks Gene Fragments (Integrated DNA Technologies, Coralville, Iowa). A vector fragment was obtained by PCR amplification from plasmid pcDNA3.1/zeo(+) (Thermo Fisher, Waltham, Mass.). Plasmids expressing DSB repair genes were constructed via Gibson assembly of gene fragment(s) and the vector fragment following the manufacturer's instruction (New England Biolabs, Ipswich, Mass.).
CHO-K1, BHK-21 hamster fibroblast (ATCC, Manassas, Va.) and bEnd.3 mouse endothelial cells (ATCC, Manassas, Va.) were cultured in 5 mL Iscove's Modified Dulbecco's Medium (IMDM, Hyclone Laboratories Inc., Logan, Utah) supplemented with 10% fetal bovine serum (FBS, Hyclone Laboratories Inc., Logan, Utah) in T-25 culture flasks (Corning Inc., Corning, N.Y.) at 37° C. and 5% CO2. […]
CHO-K1, bEnd.3 or transfected CHO-K1 cells were seeded in chambers of an 8-well chambered cover glass (Cellvis, Mountain View, Calif.) at 2×10^5 cells/mL with 0.5 mL culture media. […] At least 50 cells and foci were counted per cell sample in duplicate cultures using software ImageJ.

Molecule	DSB repair rate after removing bleomycin (CHO-K1 cells [1]; CHO cells, 12-hour treatment with 10 μg/mL bleomycin) [DSB per hour]	Induced DSB number (CHO-K1 cells [1]; CHO-K1, BL 10 μg/mL)	Induced DSB number (CHO-K1 cells [1]; CHO-K1, BL 50 μg/mL)	Repair rate (CHO-K1 cells [1]; CHO-K1, after BL 10 μg/mL one-hour treatment) [DSB/hour]	Repair rate (CHO-K1 cells [1]; CHO-K1, after BL 50 μg/mL one-hour treatment) [DSB/hour]	DSB repair rate after removing bleomycin ([2]; bEnd.3 cells, 12-hour treatment with 10 μg/mL bleomycin) [DSB per hour]	Induced DSB number ([2]; bEnd.3, BL 10 μg/mL)	Induced DSB number ([2]; bEnd.3, BL 50 μg/mL)	Repair rate ([2]; bEnd.3, after BL 10 μg/mL one-hour treatment) [DSB/hour]	Repair rate ([2]; bEnd.3, after BL 50 μg/mL one-hour treatment) [DSB/hour]	Induced DSB number ([3]; BHK-21, BL 10 μg/mL)	Induced DSB number ([3]; BHK-21, BL 50 μg/mL)	Repair rate ([3]; BHK-21, after BL 10 μg/mL one-hour treatment) [DSB/hour]	Repair rate ([3]; BHK-21, after BL 50 μg/mL one-hour treatment) [DSB/hour]	DSB repair rate after removing bleomycin ([3]; BHK-21 cells, 12-hour treatment with 10 μg/mL bleomycin) [DSB per hour]	DSB level at one hour after bleomycin removal versus control CHO-K1 cells (CHO-K1 cells [4])	DSB repair within 24 hours after bleomycin removal versus control CHO-K1 cells (CHO-K1 cells [4])
bleomycin	0.89	6	13	0.9	1.7	1.03	14	21	2.2	3.2	13	20	1.8	2.3	2.64		
LIG4: heterologous DSB repair protein DNA ligase IV, CH- or CHO-version, expressed from plasmid in CHO-K1 cells (protein, UniProt G3GTP0 1-912, looked up) DNA ligase 4: MATSQTSQTVAAHVPFADLCSTLERIQKSKERAEKIRHFKEFLDSWRKFHDALHKNKKDVTDSFYPAMRLILPQLERERMAYGIKETMLAKLYIELLNLPREGKDALKLLNYRTPSGARTDAGDFAVIAYFVLKPRCLQKGSLTIQQVNELLDLVASNNSGKRKDLVKKSLLQLITQSSALEQKWLIRMIIKDLKLGVSQQTILNIFHNDAVELHNVTTDLEKVCRQLHDPAVGLSDISITLFSAFKPMLAAVADVERVEKDMKQQSFYIETKLDGERMQMHKDGSVYQYFSRNGYNYTDQFGASPQEGTLTPFIHDAFRTDVQVCILDGEMMAYNPTTQTFMQKGVKFDIKRMVEDSDLQTCYCVFDVLMVNNKKLGRETLRKRYDILNSTFTPIQGRIEIVQKKLAQTKNEVVDALNEAIDKREEGIMIKHPLSIYKPDKRGEGWLKIKPEYVSGLMDELDLLIVGGYWGKGSRGGMMSHFLCAVAEKPPHGEKPSVFHTLCRVGSGYTMKELYDLGLKLAKYWKPFHKKSPPSSILCGTEKPEVYIEPCNSVIVQIKAAEIVPSDMYKTGTTLRFPRIEKIRDDKEWHECMTLGDLEELRGKASGKLATKHLHVGDDDEPREKRRKPVSKMKKTIGIIEHLKAPNLSNISKVSNVFEDVEFCVMSGLDGYPKSDLENRIAEFGGYIVQNPGPDTYCVIAGCENIRVKNIISSDQHDVVKPEWLLECFKTKTCVPWQPRFMIHMCPSTKQHFAREYDCYGDSYFVDTDLDQLKEVFLGIKKAGEHQTPEEMAPVIADLEYRYSWDHSPLCMFRHCTVYLDLYAVINDSSSKIKATRLDVTALELRFHGAKVVSHLSEGVSHVIIGENQSRVSDFKVFRRTLKKKFKILQERWVTDSVDKGELQEENQYLL																lower DSB level	significantly improved DSB repair
